Source: patent US5013743A, “Selective antibacterial agent against campytobacter” (Takeda Chemical Industries, Ltd., priority 1989, dated 1991)
≈ marks a conversion by molar mass, not a printed value.

Experiments:
C. pylori NCTC 11637 = experiment: MIC, agar-plate dilution method, test strain B; type: cell-based; conditions: Helicobacter pylori, NCTC11637, 72 h, Brucella agar, 37° C., 3 days
Protocol: (§1) The minimum inhibitory concentration (MIC) of each compound was determined by the agar-plate dilution method based on the standard method advocated by Japan Society of Chemotherapy [cf: Chemotherapy, Jan. '81, p. 76]. The volume of agar medium per plate was 20 ml. Each of the test compounds was dissolved in dimethylsulfoxide at a concentration of 80 mg/ml or 40 mg/ml, and diluted 10 times with sterile distilled water. Furthermore, the aqueous solution of 8 mg/ml or 4 mg/ml was diluted serially 2-fold with sterile distilled water. To 2 ml of the diluted solution was added 18 ml of Brucella agar (BBL Microbiology Systems, Becton Dickinson and Co., Cockeysville, Md. 21030) containing 7% defibrinated horse blood (manufactured by Nippon Bio-supp. Center) and mixed well. Test strains frozen at -80° C. in Brucella broth (BBL) containing 10% horse serum were thawed and inoculated on a Brucella agar slant medium containing 7% defibrinated horse blood. The medium was incubated anaerobically at 37° C. for 3 days in a jar containing a piece of sponge sufficiently impregnated with water and Campy Pak™ (BBL). The organisms grown on the slant medium were collected and suspended in a Brucella broth to correspond to the turbidity of about 10^8 CFU/ml of common bacteria. One platinum loop of inoculum was streaked on the medium plates for determination. The plates were incubated under the same conditions as described above.

C. pylori PCL 56 = experiment: MIC, agar-plate dilution method, test strain C; type: cell-based; conditions: Helicobacter pylori, PCL56, 72 h, Brucella agar, 37° C., 3 days
Protocol: as §1, with “above. […] The results are shown in Table 2 and Table 3. | C: C. pylori PCL 56” for “above.”

C. pylori CLO 6 = experiment: MIC, agar-plate dilution method, test strain G; type: cell-based; conditions: Helicobacter pylori, CLO6, 72 h, Brucella agar, 37° C., 3 days
Protocol: as §1

genus Campylobacter = experiment: Antibacterial activity against the genus Campylobacter (Tables 2 and 3, summary in words); type: cell-based, Campylobacter pylori; conditions: fluorinated alkyl derivatives vs other derivatives, Table 2 and Table 3
Protocol: as §1

aerobic bacteria = experiment: Antibacterial action against aerobic bacteria (Table 4, summary in words); type: cell-based; conditions: summary of Table 4
From the text: Antibacterial activities of some compounds of the present invention against aerobic common bacteria were examined.

[1] = Inspection of lyophilized compound (1) for solubility, appearance and content immediately after dissolution; type: physicochemical; conditions: for Appearance / Clarity / Content: after dissolution; for Content: taken as 100.0% (HPLC)
Protocol: (§2) The resulting filtrate was filled in 1 ml portions into vials of a 12 cm^3 capacity, followed by lyophilization by means of the conventional technique.
(§3) *As measured by use of highperformance liquid chromatography (HPLC),
(§4) whereby the content determined immediately after preparation was taken as
(§5) Chromatographic conditions of HPLC:
(§6) Nucleosil 5 C18 (supplied by GasChro Kogyo K.K. of Japan) 4.0 mm
(§7) Methanol:water:triethylamine (60:40:1, pH 7)
(§8) UV spectrophotometry at 285 mm

[2] = Stability of the lyophilized compound (1) after being dissolved in vials, storage for 24 hours; type: physicochemical
Protocol: as §2, §3, §4, §5, §6, §7, §8

[3] = type: in vivo; conditions: oral, mice, 200 mg/kg

Cc1c(OCC(F)(F)F)ccnc1C[S+]([O-])c1nc2ccccc2[nH]1 (stereo not drawn) [Compound 1]
MIC (C. pylori NCTC 11637): 6.25 µg/mL (≈ 16.9 µM)
MIC (C. pylori PCL 56): 6.25 µg/mL (≈ 16.9 µM)
MIC (C. pylori CLO 6): 3.13 µg/mL (≈ 8.47 µM)
antibacterial activity compared with other derivatives (genus Campylobacter): stronger antibacterial activity
antibacterial action against the aerobic bacteria (aerobic bacteria): did not possess at all antibacterial action
pH after dissolution ([1]; Solvent A): 8.7
Solubility ([1]; Solvent A (N-methylglucamine, HCl, propylene glycol, ethanol)): Good
pH after dissolution ([1]; Solvent B): 9.0
Solubility ([1]; Solvent B (N-methylglucamine, HCl, polyethylene glycol 400, ethanol, water)): Good
pH after dissolution ([1]; Solvent C): 9.0
Solubility ([1]; Solvent C (N-methylglucamine, HCl, ethanol, propylene glycol, water)): Good
pH after dissolution ([1]; Solvent D): 9.0
Solubility ([1]; Solvent D (N-methylglucamine, HCl, polyethylene glycol 400, water)): Good
dissolution speed ([1]; Solvents A to D): dissolved quickly
solubilities of the lyophilized powder in all of these solvents ([1]; Solvents A to D): excellent solubilities
Appearance ([1]; Solvent A): Colorless
Clarity ([1]; Solvent A): Clear
Content ([1]; Solvent A): 100%
Appearance ([1]; Solvent B): Colorless
Clarity ([1]; Solvent B): Clear
Content ([1]; Solvent B): 100%
Appearance ([1]; Solvent C): Colorless
Clarity ([1]; Solvent C): Clear
Content ([1]; Solvent C): 100%
Appearance ([1]; Solvent D): Colorless
Clarity ([1]; Solvent D): Clear
Content ([1]; Solvent D): 100%
change in content of compound (1) ([2]; Solvents A to D, 24 hours): decrease slightly
change in the stage of solution ([2]; Solvents A to D, 24 hours): no change in the stage of solution
Clarity ([2]; after storage at 5° C. for 24 hrs., Solvent A): Clear
Clarity ([2]; after storage at 5° C. for 24 hrs., Solvent B): Clear
Clarity ([2]; after storage at 5° C. for 24 hrs., Solvent C): Clear
Clarity ([2]; after storage at 5° C. for 24 hrs., Solvent D): Clear
Appearance ([2]; after storage at 5° C. for 24 hrs., Solvents A to D): Slightly to lightly green-yellow
changes in appearance ([2]; immediately after dissolution and after storage for 24 hours): slight changes in appearance

COc1ccc2[nH]c([S+]([O-])Cc3ncc(C)c(OC)c3C)nc2c1 (stereo not drawn) [Compound 2]
MIC (C. pylori NCTC 11637): 25 µg/mL (≈ 72.4 µM)
MIC (C. pylori PCL 56): 12.5 µg/mL (≈ 36.2 µM)
MIC (C. pylori CLO 6): 12.5 µg/mL (≈ 36.2 µM)
antibacterial action against the aerobic bacteria (aerobic bacteria): did not possess at all antibacterial action

Cc1c(OCC(F)(F)F)ccnc1CSc1nc2ccccc2[nH]1 [Compound 6]
MIC (C. pylori NCTC 11637): 12.5 µg/mL (≈ 35.4 µM)
MIC (C. pylori PCL 56): 6.25 µg/mL (≈ 17.7 µM)
MIC (C. pylori CLO 6): 6.25 µg/mL (≈ 17.7 µM)
antibacterial activity compared with other derivatives (genus Campylobacter): stronger antibacterial activity
antibacterial action against the aerobic bacteria (aerobic bacteria): did not possess at all antibacterial action
dead animals [3]: no dead animals
